Measurements published in patent US11008317B2, “Triazolopyridine inhibitors of myeloperoxidase and/or EPX” (priority 2016, dated 2021).

Legend:
[1] = target: T1, myeloperoxidase (Homo sapiens, UniProt P05164); experiment: MPO Peroxidation Assay (Amplex Red Assay); format: biochemical; settings: potency range class
T1 sequence (P05164 49-745): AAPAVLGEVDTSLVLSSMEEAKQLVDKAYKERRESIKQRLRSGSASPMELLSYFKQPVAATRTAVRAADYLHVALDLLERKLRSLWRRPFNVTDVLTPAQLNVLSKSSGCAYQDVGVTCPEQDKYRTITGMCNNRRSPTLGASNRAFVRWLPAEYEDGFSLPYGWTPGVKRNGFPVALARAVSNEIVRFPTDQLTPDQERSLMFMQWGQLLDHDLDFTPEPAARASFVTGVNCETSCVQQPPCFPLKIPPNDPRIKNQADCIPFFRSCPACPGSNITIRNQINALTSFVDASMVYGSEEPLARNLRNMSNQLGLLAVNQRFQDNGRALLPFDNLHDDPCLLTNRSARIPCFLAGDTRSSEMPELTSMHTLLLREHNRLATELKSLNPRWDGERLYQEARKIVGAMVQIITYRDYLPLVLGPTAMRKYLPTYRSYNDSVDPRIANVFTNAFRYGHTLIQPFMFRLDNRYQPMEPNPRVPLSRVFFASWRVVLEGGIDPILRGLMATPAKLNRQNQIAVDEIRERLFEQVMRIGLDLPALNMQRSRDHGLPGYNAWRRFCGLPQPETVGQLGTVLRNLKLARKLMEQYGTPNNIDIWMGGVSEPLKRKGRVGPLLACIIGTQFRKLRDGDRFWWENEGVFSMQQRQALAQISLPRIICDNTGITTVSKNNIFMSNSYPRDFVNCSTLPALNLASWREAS

[2] = target: T1, myeloperoxidase; experiment: MPO Chlorination Assay (APF Assay); format: biochemical; settings: potency range class
[3] = read-out: Amplex Red Assay IC50 value

Structure (SMILES) | IC50 [1, 3] | IC50 ([2]; read-out: APF Assay IC50 value) | IC50 ([1]; Amplex Red Assay IC50 value (μM)) | IC50 ([2]; APF Assay IC50 value (μM))
Nc1cc(C(CCNCC(c2ccccc2)c2ccccc2)c2ccccc2)c2nn[nH]c2n1 (centres unmarked) [Example 120, 7-{3-[(2,2-diphenylethyl)amino]-1-phenylpropyl}-3H-[1,2,3]triazolo[4,5-b]pyridin-5-amine] | 1 to 10 µM | 0.001 to 0.1 µM | – | –
Nc1cc(C(CCN[C@@H]2CCc3ccc(C(F)(F)F)cc32)c2ccccc2)c2nn[nH]c2n1 (stereo partly drawn) [Example 124, 7-(1-phenyl-3-{[(1R)-6-(trifluoromethyl)-2,3-dihydro-1H-inden-1-yl]amino}propyl)-3H-[1,2,3] triazolo[4,5-b] pyridin-5-amine] | 1 to 10 µM | 0.101 to 0.999 µM | – | –
Nc1cc(C(CCNC2CCC(Cc3ccccc3)(c3ccccc3)CC2)c2ccccc2)c2nn[nH]c2n1 (centres unmarked) [Example 126, 7-{3-[(4-benzyl-4-phenylcyclohexyl)amino]-1-phenylpropyl}-3H-[1,2,3]triazolo[4,5-b]pyridin-5-amine] | 1 to 10 µM | 0.001 to 0.1 µM | – | –
Nc1cc(C(CCNC2CCC(c3ccccc3)(c3ccccc3)CC2)c2ccccc2)c2nn[nH]c2n1 (centres unmarked) [Example 127, 7-{3-[(4,4-diphenylcyclohexyl)amino]-1-phenylpropyl}-3H-[1,2,3]triazolo[4,5-b]pyridin-5-amine] | 1 to 10 µM | 0.001 to 0.1 µM | – | –
Nc1cc(C(CCNC2(c3ccccc3)CCCCC2)c2ccccc2)c2nn[nH]c2n1 (centres unmarked) [Example 128, 7-{1-phenyl-3-[(1-phenylcyclohexyl)amino]propyl}-3H-[1,2,3]triazolo [4,5-b]pyridin-5-amine] | – | – | 1 to 10 µM | 0.001 to 0.1 µM
Nc1cc(C(CCNC2CCC(Cc3ccccc3)CC2)c2ccccc2)c2nn[nH]c2n1 (centres unmarked) [Example 129, 7-{3-[(4-benzylcyclohexyl)amino]-1-phenylpropyl}-3H-[1,2,3]triazolo[4,5-b]pyridin-5-amine] | 1 to 10 µM | 0.001 to 0.1 µM | – | –
Nc1cc(C(CCNC2CCC(c3cccnc3)CC2)c2ccccc2)c2nn[nH]c2n1 (centres unmarked) [Example 132, 7-(1-phenyl-3-{[4-(pyridin-3-yl)cyclohexyl]amino]propyl)-3H-[1,2,3] triazolo[4,5-b] pyridin-5-amine] | 1 to 10 µM | 1 to 10 µM | – | –
COc1ccncc1[C@H]1CC[C@H](NCCC(c2ccccc2)c2cc(N)nc3[nH]nnc23)CC1 (stereo partly drawn) [Example 137, 7-(1-phenyl-3-{[(trans)-4-(4-methoxypyridin-3-yl)cyclohexyl]amino}propyl)-3H-[1,2,3]triazolo [4,5-b]pyridin-5-amine] | 1 to 10 µM | 0.101 to 0.999 µM | – | –
COc1ccncc1[C@H]1CC[C@@H](NCCC(c2ccccc2)c2cc(N)nc3[nH]nnc23)CC1 (some centres unmarked) [Example 138, 7-(1-phenyl-3-{[(1s,4s)-4-(4-methoxypyridin-3-yl)cyclohexyl]amino}propyl)-3H-[1,2,3]triazolo [4,5-b]pyridin-5-amine] | 1 to 10 µM | 1 to 10 µM | – | –
Nc1cc(C(CCNC2(Cc3ccccc3)CCC(c3ccccc3)CC2)c2ccccc2)c2nn[nH]c2n1 (centres unmarked) [Example 142, 7-{3-[(1-benzyl-4-phenylcyclohexyl)amino]-1-phenylpropyl}-3H-[1,2,3]triazolo[4,5-b]pyridin-5-amine] | 1 to 10 µM | 0.101 to 0.999 µM | – | –
Nc1cc(C(CCNC2(c3ccccc3)CCC(c3ccccc3)CC2)c2ccccc2)c2nn[nH]c2n1 (centres unmarked) [Example 144, 7-{3-[(1,4-diphenylcyclohexyl)amino]-1-phenylpropyl}-3H-[1,2,3]triazolo [4,5-b]pyridin-5-amine] | 1 to 10 µM | 0.101 to 0.999 µM | – | –
Nc1cc(C(CCN[C@H]2CC[C@H](n3cncn3)CC2)c2ccccc2)c2nn[nH]c2n1 (stereo partly drawn) [Example 146, 7-(1-phenyl-3-{[(trans)-4-(1H-1,2,4-triazol-1-yl)cyclohexyl]amino}propyl)-3H-[1,2,3] triazolo[4,5-b] pyridin-5-amine] | 1 to 10 µM | 0.101 to 0.999 µM | – | –

More lines, main results first:

IC50 [1, 3] | IC50 ([2]; read-out: APF Assay IC50 value) | Structure (SMILES) | IC50 ([1]; Amplex Red Assay IC50 value (μM)) | IC50 ([2]; APF Assay IC50 value (μM))
0.101 to 0.999 µM | 0.101 to 0.999 µM | Nc1cc(C(CCNC2CCC(c3ccc(F)cc3)CC2)c2ccccc2)c2nn[nH]c2n1 (centres unmarked) [Example 112, 7-(3-{[4-(4-fluorophenyl)cyclohexyl]amino}-1-phenylpropyl)-3H-[1,2,3]triazolo [4,5-b]pyridin-5-amine] | – | –
0.101 to 0.999 µM | 0.001 to 0.1 µM | Nc1cc(C(CCNC2(CO)CCC(c3ccccc3)CC2)c2ccccc2)c2nn[nH]c2n1 (centres unmarked) [Example 116, {1-[(3-{5-amino-3H-[1,2,3]triazolo[4,5-b]pyridin-7-yl}-3-phenylpropyl)amino]-4-phenylcyclohexyl} methanol] | – | –
0.101 to 0.999 µM | 0.001 to 0.1 µM | NC(=O)c1ccc(C2CCC(NCCC(c3ccccc3)c3cc(N)nc4[nH]nnc34)CC2)cc1 (centres unmarked) [Example 117, 4-{4-[(3-{5-amino-3H-[1,2,3]triazolo [4,5-b]pyridin-7-yl}-3-phenylpropyl)amino]cyclohexyl} benzamide] | – | –
0.101 to 0.999 µM | 0.101 to 0.999 µM | NC(=O)c1ccc(C2CCC(NCCC(c3ccccc3)c3cc(N)nc4[nH]nnc34)CC2)cc1 (centres unmarked) [Example 118, 4-{4-[(3-{5-amino-3H-[1,2,3]triazolo [4,5-b]pyridin-7-yl}-3-phenylpropyl)amino]cyclohexyl} benzamide] | – | –
0.101 to 0.999 µM | 0.001 to 0.1 µM | CC(C)(Cc1ccccc1)NCCC(c1ccccc1)c1cc(N)nc2[nH]nnc12 (centres unmarked) [Example 119, 7-{3-[(2-methyl-1-phenylpropan-2-yl)amino]-1-phenylpropyl}-3H-[1,2,3]triazolo [4,5-b]pyridin-5-amine] | – | –
0.101 to 0.999 µM | 0.101 to 0.999 µM | COc1ccc2c(c1)CC[C@H]2NCCC(c1ccccc1)c1cc(N)nc2[nH]nnc12 (stereo partly drawn) [Example 121, 7-(3-{[(1R)-5-methoxy-2,3-dihydro-1H-inden-1-yl]amino}-1-phenylpropyl)-3H-[1,2,3]triazolo[4,5-b]pyridin-5-amine] | – | –
0.101 to 0.999 µM | 0.101 to 0.999 µM | Nc1cc(C(CCN[C@@H]2CCc3c(Cl)cc(Cl)cc32)c2ccccc2)c2nn[nH]c2n1 (stereo partly drawn) [Example 123, 7-(3-{[(1R)-4,6-dichloro-2,3-dihydro-1H-inden-1-yl]amino}-1-phenylpropyl)-3H-[1,2,3]triazolo[4,5-b]pyridin-5-amine] | – | –
0.101 to 0.999 µM | 0.001 to 0.1 µM | Nc1cc(C(CCNC2CCC(c3ccc(F)cc3)CC2)c2ccccc2)c2nn[nH]c2n1 (centres unmarked) [Example 125, 7-(3-{[4-(4-fluorophenyl)cyclohexyl]amino}-1-phenylpropyl)-3H-[1,2,3]triazolo[4,5-b]pyridin-5-amine] | – | –
0.101 to 0.999 µM | 0.001 to 0.1 µM | CCCCC12CCC(NCCC(c3ccccc3)c3cc(N)nc4[nH]nnc34)(CC1)CC2 (centres unmarked) [Example 130, 7-[3-({4-butylbicyclo [2.2.2]octan-1-yl}amino)-1-phenylpropyl]-3H-[1,2,3]triazolo[4,5-b]pyridin-5-amine] | – | –
0.101 to 0.999 µM | 0.101 to 0.999 µM | Nc1cc(C(CCN[C@H]2CC[C@@H](c3ccc(=O)[nH]c3)CC2)c2ccccc2)c2nn[nH]c2n1 (stereo partly drawn) [Example 133, 5-[(cis)-4-[(3-{5-amino-3H-[1,2,3]triazolo[4,5-b]pyridin-7-yl}-3-phenylpropyl)amino]cyclohexyl]-1,2-dihydropyridin-2-one] | – | –
0.101 to 0.999 µM | 0.101 to 0.999 µM | Nc1cc(C(CCN[C@H]2CC[C@H](c3ccc(=O)[nH]c3)CC2)c2ccccc2)c2nn[nH]c2n1 (stereo partly drawn) [Example 134, 5-[(trans)-4-[(3-{5-amino-3H-[1,2,3]triazolo[4,5-b]pyridin-7-yl}-3-phenylpropyl)amino]cyclohexyl]-1,2-dihydropyridin-2-one] | – | –
0.101 to 0.999 µM | 0.001 to 0.1 µM | Nc1cc(C(CCN[C@H]2CC[C@H](c3ccncc3)CC2)c2ccccc2)c2nn[nH]c2n1 (stereo partly drawn) [Example 139, 7-(1-phenyl-3-{[(trans)-4-(pyridin-4-yl)cyclohexyl]amino}propyl)-3H-[1,2,3] triazolo[4,5-b] pyridin-5-amine] | – | –
0.101 to 0.999 µM | 0.101 to 0.999 µM | Nc1cc(C(CCN[C@H]2CC[C@@H](c3ccncc3)CC2)c2ccccc2)c2nn[nH]c2n1 (some centres unmarked) [Example 141, 7-(1-phenyl-3-{[(1s,4s)-4-(pyridin-4-yl)cyclohexyl]amino}propyl)-3H-[1,2,3]triazolo [4,5-b]pyridin-5-amine] | – | –
0.001 to 0.1 µM | 0.001 to 0.1 µM | Nc1cc(C(CCNC23CCC(c4ccccc4)(CC2)C(O)C3)c2ccccc2)c2nn[nH]c2n1 (centres unmarked) [Example 145, 4-[(3-{5-amino-3H-[1,2,3]triazolo[4,5-b]pyridin-7-yl}-3-phenylpropyl)amino]-1-phenylbicyclo [2.2.2]octan-2-ol] | – | –
0.001 to 0.1 µM | 0.001 to 0.1 µM | CC1CC2(NCCC(c3ccccc3)c3cc(N)nc4[nH]nnc34)CCC1(c1ccccc1)CC2 (centres unmarked) [Example 147, 7-[3-({3-methyl-4-phenylbicyclo[2.2.2]octan-1-yl}amino)-1-phenylpropyl]-3H-[1,2,3]triazolo [4,5-b]pyridin-5-amine] | – | –
0.001 to 0.1 µM | 0.001 to 0.1 µM | COC1CC2(NCCC(c3ccccc3)c3cc(N)nc4[nH]nnc34)CCC1(c1ccccc1)CC2 (centres unmarked) [Example 148, 7-[3-({3-methoxy-4-phenylbicyclo [2.2.2]octan-1-yl}amino)-1-phenylpropyl]-3H-[1,2,3]triazolo[4,5-b]pyridin-5-amine] | – | –
